Experimental findings from patent publication US11814376B2, “Hepatitis b core protein modulators” (Assembly Biosciences, Inc., priority 2015, dated 2023) are described below.

In data set [1] the test system is AD38 cells. In words: Viability of AD38 cells (Promega CellTiter-Glo). The data set is classed as cell-based. The note with it: 10 μM compound, 6 days, CellTiter-Glo luminescence normalized to DMSO control (100%). An outline of the steps:
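AD38 cells were seeded at 50,000/well on collagen-coated plates and treated with compound added as a 10× solution in 10% DMSO for 6 days at 37° C. Viability was measured by CellTiter-Glo luminescence in tetracycline-free medium with 2% FBS and 1% DMSO, and expressed as percent of DMSO control.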

Data set [2] concerns HBV viral load in AD38 cells. Briefly: Viral load production in AD38 cells, quantitative PCR of the core sequence in supernatant. The data set is classed as cell-based. The note with it: for activity at 10 µM: Hepatitis B virus, 144 h, read-out: AD38 Viral Load (%) (VL with cmpd/VL in DMSO control) at 10 μM.
[3] abbreviates: 10 μM compound, 6 days at 37° C., supernatant qPCR, relative to DMSO control.

Structures can show the parent of a compound that is named as a salt. Where two headings read alike, the source gives them in different places.

In the case of `O=C1Cc2cc(-c3ncc(CNC(=O)c4ccc5c(c4)NC(=O)c4ccccc4S5(=O)=O)s3)ccc2N1` [compound 1821], the “AD38 Viability Normalized Result (cmpd/DMSO %) at 10 μM” value in data set [1] is recorded as 102%. In addition, in data set [2] (setting [3]), the activity at 10 µM worked out at 0.5%.

Regarding `O=C(NCc1cnc(-c2ccc(O[C@H]3CCNC3)cc2)s1)c1ccc2c(c1)NC(=O)c1ccccc1S2(=O)=O.O=C(O)C(F)(F)F` [compound 11028, (S)-11-oxo-N-((2-(4-(pyrrolidin-3-yloxy)phenyl)thiazol-5-yl)methyl)-10, 11-dihydrodibenzo [b, f] [1, 4] thiazepine-8-carboxamide 5,5-dioxide TFA salt], in data set [1], the “AD38 Viability Normalized Result (cmpd/DMSO %) at 10 μM” value was found to be 92%. Further, the activity at 10 µM in data set [2] (setting [3]) amounted to 5.2%.

As to `Cc1c(C(=O)NCc2cnc(-c3ccc(F)cn3)s2)ccc2c1NC(=O)c1ccccc1S2(=O)=O` [compound 11150], in data set [1], the “AD38 Viability Normalized Result (cmpd/DMSO %) at 10 μM” value was 100%. The activity at 10 µM in data set [2] (setting [3]) came out at 0.4%.

For the compound `CCN(CC)CCCSc1ccc(-c2ncc(CNC(=O)c3ccc4c(c3)NC(=O)c3ccccc3S4(=O)=O)s2)cc1` [compound 11063, N-((2-(4-((3-(diethylamino)propyl)thio)phenyl)thiazol-5-yl)methyl)-11-oxo-10, 11-dihydrodibenzo [b, f] [1, 4] thiazepine-8-carboxamide 5,5-dioxide], the “AD38 Viability Normalized Result (cmpd/DMSO %) at 10 μM” value in data set [1] is reported as 102%. Also, the activity at 10 µM in data set [2] (setting [3]) came to 1.2%.

`CC(C)(C)OC(=O)NCCCS(=O)(=O)c1ccc(-c2ncc(CNC(=O)c3ccc4c(c3)NC(=O)c3ccccc3S4(=O)=O)s2)cc1` [11032-A, tert-butyl (3-((4-(5-((5,5-dioxido-11-oxo-10, 11-dihydrodibenzo [b, f] [1, 4]thiazepine-8-carboxamido)methyl)thiazol-2-yl)phenyl)sulfonyl)propyl) carbamate]: in data set [1], the “AD38 Viability Normalized Result (cmpd/DMSO %) at 10 μM” value was determined as 110%. Moreover, the “AD38 Viral Load (%) (VL with cmpd/VL in DMSO control) at 10 μM” value in data set [2] (setting [3]) is reported as 12.9%.

On to `CC(C)(NC(=O)c1ccc2c(c1)NC(=O)c1ccccc1S2)c1cncs1` [compound 1549], for which the “AD38 Viability Normalized Result (cmpd/DMSO %) at 10 μM” value in data set [1] amounted to 105%. Further, the activity at 10 µM in data set [2] (setting [3]) worked out at 106%.

For the compound `Cc1ncc(CNC(=O)c2ccc3c(c2)NC(=O)c2ccc(Cl)cc2S3)s1` [compound 1544], the “AD38 Viability Normalized Result (cmpd/DMSO %) at 10 μM” value in data set [1] is 88%. The activity at 10 µM in data set [2] (setting [3]) is 2.6%.

In the case of `O=C(NCc1cnc(-c2ccc(O)cc2)s1)c1ccc2c(c1)NC(=O)c1cccc(F)c1S2` [compound 1753], the “AD38 Viability Normalized Result (cmpd/DMSO %) at 10 μM” value in data set [1] came to 97%. Further, the activity at 10 µM in data set [2] (setting [3]) turned out to be 2.4%.

For the compound `N#Cc1ccc(-c2ncc(CNC(=O)c3ccc4c(c3)NC(=O)c3ccccc3S4(=O)=O)s2)cc1Cl` [compound 1817], the “AD38 Viability Normalized Result (cmpd/DMSO %) at 10 μM” value in data set [1] came to 97%. Moreover, the activity at 10 µM in data set [2] (setting [3]) was 0.3%.

For `Cc1ncc(CNC(=O)c2ccc3c(c2)NC(=O)c2cc(Cl)ccc2S3)s1` [compound 1541], in data set [1], the “AD38 Viability Normalized Result (cmpd/DMSO %) at 10 μM” value is 98%. Also, the activity at 10 µM in data set [2] (setting [3]) was 3.7%.

In the case of `O=C(NCc1cnc(-c2ccc(OCCC[N+]34CCC(CC3)CC4)cc2)s1)c1ccc2c(c1)NC(=O)c1ccccc1S2(=O)=O.[Br-]` [compound 11108, 1-(3-(4-(5-((5,5-dioxido-11-oxo-10, 11-dihydrodibenzo [b, f] [1, 4]thiazepine-8-carboxamido)methyl)thiazol-2-yl)phenoxy)propyl) quinuclidin-1-ium bromide], the “AD38 Viability Normalized Result (cmpd/DMSO %) at 10 μM” value in data set [1] is 95%. Moreover, the activity at 10 µM in data set [2] came to 11.2%.

Regarding `O=C(O)CSc1ncc(CNC(=O)c2ccc3c(c2)NC(=O)c2ccccc2S3)s1` [compound 1603, 2-((5-((11-oxo-10, 11-dihydrodibenzo [b, f] [1, 4]thiazepine-8-carboxamido)methyl)thiazol-2-yl)thio) acetic acid], the “AD38 Viability Normalized Result (cmpd/DMSO %) at 10 μM” value in data set [1] came out at 108%. Besides, the activity at 10 µM in data set [2] (setting [3]) stood at 32.8%.

In the case of `O=C(NCc1cnc(-c2ccc(SCCCN3CCCCC3)cc2)s1)c1ccc2c(c1)NC(=O)c1ccccc1S2(=O)=O` [compound 11065, 11-oxo-N-((2-(4-((3-(piperidin-1-yl)propyl)thio)phenyl)thiazol-5-yl)methyl)-10, 11-dihydrodibenzo [b, f] [1, 4] thiazepine-8-carboxamide 5,5-dioxide], in data set [1], the “AD38 Viability Normalized Result (cmpd/DMSO %) at 10 μM” value is on record as 66%. For the same compound, in data set [2] (setting [3]), the activity at 10 µM was 1.2%.

Take `O=C(NCc1cnc(-c2ccc3[nH]cnc3c2)s1)c1ccc2c(c1)NC(=O)c1ccccc1S2(=O)=O` [compound 1637]: the “AD38 Viability Normalized Result (cmpd/DMSO %) at 10 μM” value in data set [1] came to 101%. The activity at 10 µM in data set [2] (setting [3]) was 2.3%.

As to `CN(C)C1CN(Cc2ccc(-c3ncc(CNC(=O)c4ccc5c(c4)NC(=O)c4ccccc4S5(=O)=O)s3)cc2)C1` [compound 11158], in data set [1], the “AD38 Viability Normalized Result (cmpd/DMSO %) at 10 μM” value was 100%. In addition, in data set [2] (setting [3]), the activity at 10 µM is 6.4%.

Regarding `O=C(NCc1cnc(-c2ncco2)s1)c1ccc2c(c1)NC(=O)c1ccccc1S2(=O)=O` [compound 1958], in data set [1], the “AD38 Viability Normalized Result (cmpd/DMSO %) at 10 μM” value is recorded as 91%. Moreover, the activity at 10 µM in data set [2] (setting [3]) is 1.5%.

With `N#Cc1ccc(-c2ncc(CNC(=O)c3ccc4c(c3)NC(=O)c3ccccc3N4CCO)s2)c(F)c1` [compound 11079], in data set [1], the “AD38 Viability Normalized Result (cmpd/DMSO %) at 10 μM” value is 102%. The activity at 10 µM in data set [2] (setting [3]) stood at 3.3%.

For the compound `O=C(NCc1cnc(-c2ccc(O)cc2F)s1)c1ccc2c(c1)NC(=O)c1ccccc1O2` [compound 1704], the “AD38 Viability Normalized Result (cmpd/DMSO %) at 10 μM” value in data set [1] came to 96%. In data set [2] (setting [3]), the activity at 10 µM was found to be 47.6%.

In the case of `O=C(NCc1cnc(C(F)(F)F)s1)c1cc2c(cc1Cl)S(=O)(=O)c1ccccc1C(=O)N2` [compound 1934], the “AD38 Viability Normalized Result (cmpd/DMSO %) at 10 μM” value in data set [1] turned out to be 69%. Also, the activity at 10 µM in data set [2] (setting [3]) came to 40%.

As to `Nc1ccnc(-c2ncc(CNC(=O)c3ccc4c(c3)NC(=O)c3ccccc3S4(=O)=O)s2)c1` [compound 1888, N-((2-(4-aminopyridin-2-yl)thiazol-5-yl)methyl)-11-oxo-10,11-dihydrodibenzo [b, f] [1, 4] thiazepine-8-carboxamide 5,5-dioxide, TFA salt], the “AD38 Viability Normalized Result (cmpd/DMSO %) at 10 μM” value in data set [1] is listed as 100%. Also, the activity at 10 µM in data set [2] (setting [3]) was 1.2%.

In the case of `O=C(NCc1cnc(N2CCOCC2)s1)c1ccc2c(c1)NC(=O)c1ccccc1O2` [compound 1611], the “AD38 Viability Normalized Result (cmpd/DMSO %) at 10 μM” value in data set [1] turned out to be 100%. In addition, the activity at 10 µM in data set [2] (setting [3]) is 1.4%.

Consider `CN1CCN(c2ncc(CNC(=O)c3ccc4c(c3)NC(=O)c3ccccc3O4)s2)CC1` [compound 1694], for which the “AD38 Viability Normalized Result (cmpd/DMSO %) at 10 μM” value in data set [1] was 91%. Also, the activity at 10 µM in data set [2] (setting [3]) is 61.1%.

`O=C(NCc1cnc(-c2ccc(OCCCN(CCO)CCO)cc2)s1)c1ccc2c(c1)NC(=O)c1ccccc1S2(=O)=O` [compound 1998]: the “AD38 Viability Normalized Result (cmpd/DMSO %) at 10 μM” value in data set [1] is on record as 99%. In data set [2] (setting [3]), the activity at 10 µM worked out at 3.7%.

With `COc1ccc(-c2ncc(CNC(=O)c3ccc4c(c3)NC(=O)c3ccccc3S4(=O)=O)s2)cn1` [compound 1666, N-((2-(6-methoxypyridin-3-yl)thiazol-5-yl)methyl)-11-oxo-10, 11-dihydrodibenzo [b, f] [1, 4] thiazepine-8-carboxamide 5,5-dioxide], the “AD38 Viability Normalized Result (cmpd/DMSO %) at 10 μM” value in data set [1] stood at 98%. Further, the activity at 10 µM in data set [2] (setting [3]) is 0.9%.
